Reference: patent publication US10829473B2, “Modulators of the cystic fibrosis transmembrane conductance regulator protein and methods of use” (AbbVie Overseas S.Á.R.L., priority 2017, dated 2020)
Where two headings read alike, the source gives them in different places.

Molecular target: T1, F508delCFTR (Homo sapiens, UniProt P13569, DEL508-508)
T1 construct: expressed in transfected cells; host or cells: CFBE41o- human lung derived epithelial cells (CFBE41o-F508delCFTR-HRP), doxycycline-inducible
T1 sequence (P13569 with tags, fused parts or gaps DEL508-508): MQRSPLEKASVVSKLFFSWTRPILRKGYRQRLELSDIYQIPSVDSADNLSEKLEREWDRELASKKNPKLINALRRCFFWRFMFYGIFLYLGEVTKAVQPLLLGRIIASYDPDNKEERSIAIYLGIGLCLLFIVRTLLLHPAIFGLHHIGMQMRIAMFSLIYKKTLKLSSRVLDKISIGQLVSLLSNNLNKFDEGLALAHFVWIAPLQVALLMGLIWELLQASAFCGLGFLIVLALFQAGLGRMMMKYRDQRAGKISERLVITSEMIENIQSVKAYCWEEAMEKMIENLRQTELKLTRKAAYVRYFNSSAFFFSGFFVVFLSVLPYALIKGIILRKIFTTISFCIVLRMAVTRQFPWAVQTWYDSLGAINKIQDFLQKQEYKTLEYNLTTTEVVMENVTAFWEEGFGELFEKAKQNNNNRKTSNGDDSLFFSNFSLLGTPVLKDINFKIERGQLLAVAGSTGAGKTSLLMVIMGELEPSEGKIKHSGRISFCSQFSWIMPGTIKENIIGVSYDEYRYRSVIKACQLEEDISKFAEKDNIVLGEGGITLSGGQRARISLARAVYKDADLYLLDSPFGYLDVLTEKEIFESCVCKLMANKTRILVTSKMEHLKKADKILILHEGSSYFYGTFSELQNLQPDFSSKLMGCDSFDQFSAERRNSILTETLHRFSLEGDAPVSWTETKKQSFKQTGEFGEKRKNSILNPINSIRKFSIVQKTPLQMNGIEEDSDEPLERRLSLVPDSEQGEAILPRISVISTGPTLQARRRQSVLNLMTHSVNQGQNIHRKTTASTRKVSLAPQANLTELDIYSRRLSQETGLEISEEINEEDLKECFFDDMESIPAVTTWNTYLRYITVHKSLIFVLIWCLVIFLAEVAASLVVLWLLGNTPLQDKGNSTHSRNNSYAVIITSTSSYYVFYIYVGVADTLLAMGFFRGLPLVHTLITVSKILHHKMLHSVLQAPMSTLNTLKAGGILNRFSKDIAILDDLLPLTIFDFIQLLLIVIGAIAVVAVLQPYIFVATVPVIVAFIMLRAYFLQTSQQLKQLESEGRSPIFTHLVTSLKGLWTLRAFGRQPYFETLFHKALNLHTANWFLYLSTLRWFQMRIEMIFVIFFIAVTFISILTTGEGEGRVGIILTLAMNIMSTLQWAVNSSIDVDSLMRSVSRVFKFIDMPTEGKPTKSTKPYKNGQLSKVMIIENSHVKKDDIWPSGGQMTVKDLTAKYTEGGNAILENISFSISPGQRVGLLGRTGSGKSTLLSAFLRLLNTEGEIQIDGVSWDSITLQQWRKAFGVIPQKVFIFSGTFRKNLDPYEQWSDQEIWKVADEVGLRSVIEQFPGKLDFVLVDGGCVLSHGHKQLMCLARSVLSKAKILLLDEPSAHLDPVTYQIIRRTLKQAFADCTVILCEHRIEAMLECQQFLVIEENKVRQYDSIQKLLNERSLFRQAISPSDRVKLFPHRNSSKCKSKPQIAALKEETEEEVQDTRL
Assay: Cell Surface Expression-Horse Radish Peroxidase (CSE-HRP) Assay;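 for EC50 (with co-corrector): co-corrector chromenyl benzoic acid corrector at 2 or 3 µM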;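 for Maximum % activity (without co-corrector): % of on-plate positive control chromenyl benzoic acid corrector at 2 or 3 µM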
Format: cell-based
Settings: for Maximum % activity (with co-corrector) / Emax: maximum at any tested concentration; for Emax: read-out: Maximum % activity (without co-corrector)
Method in brief: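 Corrector compounds were given as 8-point 3-fold series from 20 or 30 μM, with or without a 2 μM co-corrector, for 18-24 h at 33 °C. Surface HRP was read by luminol luminescence as % of positive control; variable-Hill-slope sigmoidal fitting gave EC50 from triplicate plates.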

[1] = test compound alone, without co-corrector, read-out: EC50 (without co-corrector)
[2] = with co-corrector, read-out: EC50 (with co-corrector)

| Compound | EC50 [1] [µM] | Maximum % activity (with co-corrector) (with co-corrector) | EC50 [2] [µM] | Emax (without co-corrector) [%] |
| --- | --- | --- | --- | --- |
| O=C(NS(=O)(=O)c1cccc2ccccc12)C1(c2ccc3c(c2)OC(F)(F)O3)CC1 [Example III-91, 1-(2,2-difluoro-2H-1,3-benzodioxol-5-yl)-N-(naphthalene-1-sulfonyl)cyclopropane-1-carboxamide] | > 10 | +++ (≥350) | 3 to 10 | > 150 |
| COc1ccc(C)c(C2(C(=O)NS(=O)(=O)c3cccc4ncccc34)CCN(C)CC2)c1 [Example III-94, 4-(5-methoxy-2-methylphenyl)-1-methyl-N-(quinoline-5-sulfonyl)piperidine-4-carboxamide] | > 10 | + (<150) | > 10 | < 50 |
| O=C(NS(=O)(=O)Cc1ccccc1)C1(c2ccc(Cl)cc2Cl)CC1 [Example III-104, 1-(2,4-dichlorophenyl)-N-(phenylmethanesulfonyl)cyclopropane-1-carboxamide] | > 10 | ++ (≥150 and <350) | 3 to 10 | < 50 |
| O=C(NS(=O)(=O)C(F)(F)F)C1(c2ccc(Cl)cc2Cl)CC1 [Example III-105, 1-(2,4-dichlorophenyl)-N-(trifluoromethanesulfonyl)cyclopropane-1-carboxamide] | > 10 | + (<150) | > 10 | < 50 |
| O=C(NS(=O)(=O)CC(F)(F)F)C1(c2ccc(Cl)cc2Cl)CC1 [Example III-106, 1-(2,4-dichlorophenyl)-N-(2,2,2-trifluoroethanesulfonyl)cyclopropane-1-carboxamide] | > 10 | + (<150) | > 10 | < 50 |
| CCCS(=O)(=O)NC(=O)C1(c2ccc(Cl)cc2Cl)CC1 [Example III-107, 1-(2,4-dichlorophenyl)-N-(propane-1-sulfonyl)cyclopropane-1-carboxamide] | > 10 | + (<150) | > 10 | < 50 |
| O=C(NS(=O)(=O)CCCCl)C1(c2ccc(Cl)cc2Cl)CC1 [Example III-108, N-(3-chloropropane-1-sulfonyl)-1-(2,4-dichlorophenyl)cyclopropane-1-carboxamide] | > 10 | ++ (≥150 and <350) | 3 to 10 | < 50 |
| O=C(NS(=O)(=O)Cc1ccccc1)C1(c2cccc(Cl)c2)CC1 [Example III-109, 1-(3-chlorophenyl)-N-(phenylmethanesulfonyl)cyclopropane-1-carboxamide] | > 10 | + (<150) | > 10 | < 50 |
| Cc1ccc(C2(C(=O)NS(=O)(=O)Cc3ccccc3)CC2)cc1 [Example III-111, 1-(4-methylphenyl)-N-(phenylmethanesulfonyl)cyclopropane-1-carboxamide] | > 10 | ++ (≥150 and <350) | 3 to 10 | < 50 |
| O=C(NS(=O)(=O)Cc1ccccc1)C1(c2ccc(F)cc2)CC1 [Example III-112, 1-(4-fluorophenyl)-N-(phenylmethanesulfonyl)cyclopropane-1-carboxamide] | > 10 | + (<150) | > 10 | < 50 |
| O=C(NS(=O)(=O)Cc1ccccc1)C1(c2ccccc2Cl)CC1 [Example III-113, 1-(2-chlorophenyl)-N-(phenylmethanesulfonyl)cyclopropane-1-carboxamide] | > 10 | ++ (≥150 and <350) | 3 to 10 | < 50 |

The next lines start with the values.

| EC50 [1] [µM] | Maximum % activity (with co-corrector) (with co-corrector) | EC50 [2] [µM] | Emax (without co-corrector) [%] | Compound |
| --- | --- | --- | --- | --- |
| 3 to 10 | +++ (≥350) | 3 to 10 | 50 to 150 | COc1ccccc1C1(C(=O)NS(=O)(=O)c2ccccc2C)CC1 [Example III-85, 1-(2-methoxyphenyl)-N-(2-methylbenzene-1-sulfonyl)cyclopropane-1-carboxamide] |
| 3 to 10 | ++ (≥150 and <350) | 3 to 10 | < 50 | Cc1ccccc1S(=O)(=O)NC(=O)C1(c2ccc3c(c2)OCO3)CC1 [Example III-86, 1-(2H-1,3-benzodioxol-5-yl)-N-(2-methylbenzene-1-sulfonyl)cyclopropane-1-carboxamide] |
| 3 to 10 | +++ (≥350) | 3 to 10 | 50 to 150 | Cc1ccccc1S(=O)(=O)NC(=O)C1(c2ccc(Cl)cc2Cl)CC1 [Example III-87, 1-(2,4-dichlorophenyl)-N-(2-methylbenzene-1-sulfonyl)cyclopropane-1-carboxamide] |
| 3 to 10 | ++ (≥150 and <350) | 3 to 10 | < 50 | Cc1ccccc1S(=O)(=O)NC(=O)C1(c2ccc(Cl)cc2)CC1 [Example III-88, 1-(4-chlorophenyl)-N-(2-methylbenzene-1-sulfonyl)cyclopropane-1-carboxamide] |
| 3 to 10 | ++ (≥150 and <350) | < 3 | < 50 | CC(C)(C)OC(=O)N1CCC(C(=O)NS(=O)(=O)c2cccc3ccccc23)(c2ccc(F)cc2)CC1 [Example III-89, tert-butyl 4-(4-fluorophenyl)-4-[(naphthalene-1-sulfonyl)carbamoyl]piperidine-1-carboxylate] |
| > 10 | + (<150) | > 10 | < 50 | COc1ccc(C2(C(=O)NS(=O)(=O)c3cccc4ccccc34)CCCC2)cc1OC [Example III-90, 1-(3,4-dimethoxyphenyl)-N-(naphthalene-1-sulfonyl)cyclopentane-1-carboxamide] |
| 3 to 10 | +++ (≥350) | 3 to 10 | > 150 | O=C(NS(=O)(=O)c1cccc2ccccc12)C1(c2cccc(Br)c2)CC1 [Example III-92, 1-(3-bromophenyl)-N-(naphthalene-1-sulfonyl)cyclopropane-1-carboxamide] |
| 3 to 10 | +++ (≥350) | 3 to 10 | > 150 | O=C(NS(=O)(=O)c1cccc2ncccc12)C1(c2cccc(Br)c2)CC1 [Example III-93, 1-(3-bromophenyl)-N-(quinoline-5-sulfonyl)cyclopropane-1-carboxamide] |
| 3 to 10 | +++ (≥350) | 3 to 10 | > 150 | COc1ncc(C(F)(F)F)cc1C1(C(=O)NS(=O)(=O)c2cccn3nccc23)CC1 [Example III-95, 1-[2-methoxy-5-(trifluoromethyl)pyridin-3-yl]-N-(pyrazolo[1,5-a]pyridine-4-sulfonyl)cyclopropane-1-carboxamide] |
| 3 to 10 | +++ (≥350) | 3 to 10 | 50 to 150 | COc1ncc(C(F)(F)F)cc1C1(C(=O)NS(=O)(=O)c2cccc3ncn(C)c23)CC1 [Example III-96, 1-[2-methoxy-5-(trifluoromethyl)pyridin-3-yl]-N-(1-methyl-1H-benzimidazole-7-sulfonyl)cyclopropane-1-carboxamide] |
| 3 to 10 | +++ (≥350) | 3 to 10 | > 150 | COc1ncc(C(F)(F)F)cc1C1(C(=O)NS(=O)(=O)c2cccc3cnn(C)c23)CC1 [Example III-97, 1-[2-methoxy-5-(trifluoromethyl)pyridin-3-yl]-N-(1-methyl-1H-indazole-7-sulfonyl)cyclopropane-1-carboxamide] |
| 3 to 10 | +++ (≥350) | 3 to 10 | > 150 | COc1ncc(C(F)(F)F)cc1C1(C(=O)NS(=O)(=O)c2cccc3[nH]ncc23)CC1 [Example III-98, N-(1H-indazole-4-sulfonyl)-1-[2-methoxy-5-(trifluoromethyl)pyridin-3-yl]cyclopropane-1-carboxamide] |
| 3 to 10 | +++ (≥350) | 3 to 10 | 50 to 150 | COc1ccc(C#N)cc1C1(C(=O)NS(=O)(=O)c2cccc3ncccc23)CC1 [Example III-99, 1-(5-cyano-2-methoxyphenyl)-N-(quinoline-5-sulfonyl)cyclopropane-1-carboxamide] |
| 3 to 10 | +++ (≥350) | 3 to 10 | > 150 | COc1ccc(C#N)cc1C1(C(=O)NS(=O)(=O)c2cccc3c2CCCN3)CC1 [Example III-100, 1-(5-cyano-2-methoxyphenyl)-N-(1,2,3,4-tetrahydroquinoline-5-sulfonyl)cyclopropane-1-carboxamide] |
| < 3 | +++ (≥350) | < 3 | > 150 | COc1ccc(C23CC(C2)C3)cc1C1(C(=O)NS(=O)(=O)c2cccc3c2CCCN3)CC1 [Example III-101, 1-[5-(bicyclo[1.1.1]pentan-1-yl)-2-methoxyphenyl]-N-(1,2,3,4-tetrahydroquinoline-5-sulfonyl)cyclopropane-1-carboxamide] |
| 3 to 10 | +++ (≥350) | 3 to 10 | > 150 | COc1cccc(C)c1C1(C(=O)NS(=O)(=O)c2cccc3c2ccn3C)CC1 [Example III-102] |
| 3 to 10 | +++ (≥350) | < 3 | > 150 | COc1c(Cl)cc(Cl)c(OC)c1C1(C(=O)NS(=O)(=O)c2cccc3ncccc23)CC1 [Example III-103, 1-(3,5-dichloro-2,6-dimethoxyphenyl)-N-(quinoline-5-sulfonyl)cyclopropane-1-carboxamide] |
